Source: patent US20100137449A1, “SUBSTITUTED 1,3-CYCLOPENTADIONE MULTI-TARGET PROTEIN KINASE MODULATORS OF CANCER, ANGIOGENESIS AND THE INFLAMMATORY PATHWAYS ASSOCIATED THEREWITH” (METAPROTEOMICS, LLC, priority 2007, published 2010)

Key:
Assay in all cases: KinaseProfiler Assay
[1] = target: T1, BrSK1(h) (Homo sapiens, UniProt Q8TDC3)
T1 sequence (Q8TDC3 1-778): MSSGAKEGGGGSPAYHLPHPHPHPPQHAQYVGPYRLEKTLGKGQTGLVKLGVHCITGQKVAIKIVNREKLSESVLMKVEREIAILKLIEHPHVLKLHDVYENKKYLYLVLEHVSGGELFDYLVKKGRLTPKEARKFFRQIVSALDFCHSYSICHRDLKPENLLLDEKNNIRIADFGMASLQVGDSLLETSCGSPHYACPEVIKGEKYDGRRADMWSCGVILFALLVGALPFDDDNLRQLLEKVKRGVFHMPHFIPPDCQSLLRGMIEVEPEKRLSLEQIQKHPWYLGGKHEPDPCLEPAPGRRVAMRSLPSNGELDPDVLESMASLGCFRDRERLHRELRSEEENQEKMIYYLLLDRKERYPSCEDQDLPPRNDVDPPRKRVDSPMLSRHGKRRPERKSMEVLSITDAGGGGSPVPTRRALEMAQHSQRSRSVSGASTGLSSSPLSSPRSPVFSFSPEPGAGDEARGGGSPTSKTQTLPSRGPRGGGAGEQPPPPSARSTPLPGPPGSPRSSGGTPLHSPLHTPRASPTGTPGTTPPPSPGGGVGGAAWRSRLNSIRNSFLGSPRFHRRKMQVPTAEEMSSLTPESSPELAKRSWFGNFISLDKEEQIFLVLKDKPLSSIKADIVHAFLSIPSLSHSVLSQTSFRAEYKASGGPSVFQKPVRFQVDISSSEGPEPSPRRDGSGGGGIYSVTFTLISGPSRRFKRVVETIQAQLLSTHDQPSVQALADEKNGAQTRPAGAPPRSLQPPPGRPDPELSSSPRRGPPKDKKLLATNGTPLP

[2] = target: T2, BrSK2(h) (Homo sapiens, UniProt Q8IWQ3)
T2 sequence (Q8IWQ3 1-736): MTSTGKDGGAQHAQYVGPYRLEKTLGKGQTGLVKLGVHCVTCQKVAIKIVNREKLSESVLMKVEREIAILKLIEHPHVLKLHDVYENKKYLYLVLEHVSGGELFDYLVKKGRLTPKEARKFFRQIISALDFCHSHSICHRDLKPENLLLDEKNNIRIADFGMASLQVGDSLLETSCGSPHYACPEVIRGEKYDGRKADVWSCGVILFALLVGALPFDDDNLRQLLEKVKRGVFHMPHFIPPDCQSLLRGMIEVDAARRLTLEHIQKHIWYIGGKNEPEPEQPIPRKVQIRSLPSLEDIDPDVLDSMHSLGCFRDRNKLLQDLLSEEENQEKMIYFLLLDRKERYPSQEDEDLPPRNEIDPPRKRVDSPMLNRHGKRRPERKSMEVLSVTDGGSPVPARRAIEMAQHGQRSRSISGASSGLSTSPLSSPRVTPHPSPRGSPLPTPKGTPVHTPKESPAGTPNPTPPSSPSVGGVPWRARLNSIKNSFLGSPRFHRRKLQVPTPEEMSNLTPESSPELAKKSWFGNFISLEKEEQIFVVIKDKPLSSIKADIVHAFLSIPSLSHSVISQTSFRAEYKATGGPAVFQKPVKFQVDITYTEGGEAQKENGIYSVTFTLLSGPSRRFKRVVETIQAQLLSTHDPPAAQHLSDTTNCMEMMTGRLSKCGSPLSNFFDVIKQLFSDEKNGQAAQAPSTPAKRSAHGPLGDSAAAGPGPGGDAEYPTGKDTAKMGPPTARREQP

[3] = target: CaMKIδ(h) (Homo sapiens, UniProt Q8IU85)
[4] = target: CDK6/cydinD3(h) (Homo sapiens, UniProt Q00534)
[5] = target: CDK9/cyclin T1(h) (Homo sapiens, UniProt P50750)
[6] = target: Fgr(h) (Homo sapiens, UniProt P09769)
[7] = target: Lyn(h) (Homo sapiens, UniProt P07948)
[8] = target: Met(h) (Homo sapiens, UniProt P08581)
[9] = target: MST3(h) (Homo sapiens, UniProt Q9Y6E0)
[10] = target: PKA(h) (Homo sapiens, UniProt P17612)

Chain of Lyn(h) (P07948 whole entry): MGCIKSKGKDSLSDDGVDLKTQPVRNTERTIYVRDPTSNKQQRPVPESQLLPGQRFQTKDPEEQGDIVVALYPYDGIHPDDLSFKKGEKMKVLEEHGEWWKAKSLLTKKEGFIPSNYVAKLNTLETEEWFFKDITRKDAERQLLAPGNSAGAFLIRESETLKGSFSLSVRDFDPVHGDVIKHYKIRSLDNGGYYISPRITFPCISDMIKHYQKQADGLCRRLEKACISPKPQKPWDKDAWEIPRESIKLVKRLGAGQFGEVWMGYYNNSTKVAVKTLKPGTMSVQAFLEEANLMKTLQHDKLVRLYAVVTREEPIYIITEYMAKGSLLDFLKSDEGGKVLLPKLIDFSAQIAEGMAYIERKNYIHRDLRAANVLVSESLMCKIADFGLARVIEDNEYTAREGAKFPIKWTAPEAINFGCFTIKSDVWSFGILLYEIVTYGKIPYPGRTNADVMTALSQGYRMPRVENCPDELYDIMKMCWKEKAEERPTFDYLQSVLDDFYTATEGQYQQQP
Chain of CDK6/cydinD3(h) (Q00534 whole entry): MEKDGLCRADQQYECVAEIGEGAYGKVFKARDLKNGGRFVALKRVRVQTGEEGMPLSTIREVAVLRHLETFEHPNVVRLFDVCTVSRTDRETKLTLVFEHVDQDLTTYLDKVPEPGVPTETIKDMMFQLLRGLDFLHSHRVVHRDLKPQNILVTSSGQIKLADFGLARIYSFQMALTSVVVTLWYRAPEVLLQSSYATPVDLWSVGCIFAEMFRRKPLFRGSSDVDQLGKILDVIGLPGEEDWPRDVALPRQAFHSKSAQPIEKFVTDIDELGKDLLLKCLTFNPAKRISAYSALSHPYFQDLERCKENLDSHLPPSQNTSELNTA
Chain of CDK6/cydinD3(h) (P30281 whole entry partner): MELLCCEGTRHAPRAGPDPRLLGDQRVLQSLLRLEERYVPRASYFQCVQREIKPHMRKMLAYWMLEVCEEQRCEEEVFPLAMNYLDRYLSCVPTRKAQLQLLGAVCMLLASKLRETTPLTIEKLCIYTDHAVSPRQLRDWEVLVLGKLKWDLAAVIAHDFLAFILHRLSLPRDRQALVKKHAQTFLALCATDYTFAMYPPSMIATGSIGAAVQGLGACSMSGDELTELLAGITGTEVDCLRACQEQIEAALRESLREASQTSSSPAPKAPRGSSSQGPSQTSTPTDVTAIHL
Chain of MST3(h) (Q9Y6E0 whole entry): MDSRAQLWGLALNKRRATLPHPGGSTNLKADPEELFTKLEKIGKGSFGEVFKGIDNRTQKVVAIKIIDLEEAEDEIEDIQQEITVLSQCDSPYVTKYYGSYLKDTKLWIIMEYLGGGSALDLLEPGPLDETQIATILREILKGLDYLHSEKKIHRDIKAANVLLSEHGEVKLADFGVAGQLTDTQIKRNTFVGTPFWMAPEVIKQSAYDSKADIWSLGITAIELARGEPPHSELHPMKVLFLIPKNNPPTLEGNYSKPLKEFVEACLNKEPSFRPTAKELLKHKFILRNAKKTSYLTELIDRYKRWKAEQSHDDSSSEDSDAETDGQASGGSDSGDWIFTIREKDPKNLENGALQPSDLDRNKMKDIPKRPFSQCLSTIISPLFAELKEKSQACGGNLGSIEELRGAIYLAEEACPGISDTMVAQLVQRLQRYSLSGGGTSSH
Chain of CDK9/cyclin T1(h) (P50750 whole entry): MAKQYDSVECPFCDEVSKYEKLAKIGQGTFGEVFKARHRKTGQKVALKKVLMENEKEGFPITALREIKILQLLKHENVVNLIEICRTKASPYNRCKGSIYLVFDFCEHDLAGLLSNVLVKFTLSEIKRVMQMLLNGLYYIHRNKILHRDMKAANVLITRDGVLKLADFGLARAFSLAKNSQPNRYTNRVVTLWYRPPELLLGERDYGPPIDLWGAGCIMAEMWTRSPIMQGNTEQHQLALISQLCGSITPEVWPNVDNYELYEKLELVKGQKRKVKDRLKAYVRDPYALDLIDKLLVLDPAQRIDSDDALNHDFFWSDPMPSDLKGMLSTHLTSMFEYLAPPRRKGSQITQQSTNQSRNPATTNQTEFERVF
Chain of CDK9/cyclin T1(h) (O60563 whole entry partner): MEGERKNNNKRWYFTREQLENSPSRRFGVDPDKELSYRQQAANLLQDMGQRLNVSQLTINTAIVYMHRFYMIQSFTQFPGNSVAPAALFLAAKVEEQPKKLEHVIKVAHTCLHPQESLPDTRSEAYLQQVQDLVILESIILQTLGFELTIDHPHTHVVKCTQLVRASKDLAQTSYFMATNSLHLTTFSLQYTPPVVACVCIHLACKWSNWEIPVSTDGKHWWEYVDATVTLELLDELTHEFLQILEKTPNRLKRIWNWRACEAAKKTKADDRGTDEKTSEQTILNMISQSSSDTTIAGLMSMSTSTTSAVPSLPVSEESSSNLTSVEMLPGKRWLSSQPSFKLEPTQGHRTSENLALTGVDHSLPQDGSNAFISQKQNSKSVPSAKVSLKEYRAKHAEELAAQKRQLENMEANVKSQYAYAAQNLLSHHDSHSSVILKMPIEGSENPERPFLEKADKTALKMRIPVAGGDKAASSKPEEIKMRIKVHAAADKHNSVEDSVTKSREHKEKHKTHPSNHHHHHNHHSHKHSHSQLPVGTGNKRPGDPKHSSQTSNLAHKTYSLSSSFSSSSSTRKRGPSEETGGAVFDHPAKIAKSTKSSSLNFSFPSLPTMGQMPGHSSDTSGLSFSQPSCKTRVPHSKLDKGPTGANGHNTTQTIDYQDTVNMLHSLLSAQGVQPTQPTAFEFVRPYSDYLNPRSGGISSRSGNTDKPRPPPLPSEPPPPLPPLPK
Chain of Fgr(h) (P09769 whole entry): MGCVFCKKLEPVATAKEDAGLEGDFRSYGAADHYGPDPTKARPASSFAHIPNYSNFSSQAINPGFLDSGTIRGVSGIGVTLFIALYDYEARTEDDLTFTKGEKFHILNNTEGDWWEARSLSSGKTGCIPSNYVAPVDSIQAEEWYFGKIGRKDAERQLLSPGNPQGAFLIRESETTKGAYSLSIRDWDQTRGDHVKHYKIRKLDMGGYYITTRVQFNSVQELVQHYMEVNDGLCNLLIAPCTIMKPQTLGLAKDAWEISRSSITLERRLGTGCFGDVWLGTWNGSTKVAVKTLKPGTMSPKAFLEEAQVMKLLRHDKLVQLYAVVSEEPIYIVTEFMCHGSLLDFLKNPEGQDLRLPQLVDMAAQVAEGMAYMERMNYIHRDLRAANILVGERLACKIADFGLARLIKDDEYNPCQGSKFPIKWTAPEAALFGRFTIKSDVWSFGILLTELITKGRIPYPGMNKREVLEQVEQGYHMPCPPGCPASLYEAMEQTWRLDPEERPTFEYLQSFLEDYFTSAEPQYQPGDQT
Chain of Met(h) (P08581 25-1390): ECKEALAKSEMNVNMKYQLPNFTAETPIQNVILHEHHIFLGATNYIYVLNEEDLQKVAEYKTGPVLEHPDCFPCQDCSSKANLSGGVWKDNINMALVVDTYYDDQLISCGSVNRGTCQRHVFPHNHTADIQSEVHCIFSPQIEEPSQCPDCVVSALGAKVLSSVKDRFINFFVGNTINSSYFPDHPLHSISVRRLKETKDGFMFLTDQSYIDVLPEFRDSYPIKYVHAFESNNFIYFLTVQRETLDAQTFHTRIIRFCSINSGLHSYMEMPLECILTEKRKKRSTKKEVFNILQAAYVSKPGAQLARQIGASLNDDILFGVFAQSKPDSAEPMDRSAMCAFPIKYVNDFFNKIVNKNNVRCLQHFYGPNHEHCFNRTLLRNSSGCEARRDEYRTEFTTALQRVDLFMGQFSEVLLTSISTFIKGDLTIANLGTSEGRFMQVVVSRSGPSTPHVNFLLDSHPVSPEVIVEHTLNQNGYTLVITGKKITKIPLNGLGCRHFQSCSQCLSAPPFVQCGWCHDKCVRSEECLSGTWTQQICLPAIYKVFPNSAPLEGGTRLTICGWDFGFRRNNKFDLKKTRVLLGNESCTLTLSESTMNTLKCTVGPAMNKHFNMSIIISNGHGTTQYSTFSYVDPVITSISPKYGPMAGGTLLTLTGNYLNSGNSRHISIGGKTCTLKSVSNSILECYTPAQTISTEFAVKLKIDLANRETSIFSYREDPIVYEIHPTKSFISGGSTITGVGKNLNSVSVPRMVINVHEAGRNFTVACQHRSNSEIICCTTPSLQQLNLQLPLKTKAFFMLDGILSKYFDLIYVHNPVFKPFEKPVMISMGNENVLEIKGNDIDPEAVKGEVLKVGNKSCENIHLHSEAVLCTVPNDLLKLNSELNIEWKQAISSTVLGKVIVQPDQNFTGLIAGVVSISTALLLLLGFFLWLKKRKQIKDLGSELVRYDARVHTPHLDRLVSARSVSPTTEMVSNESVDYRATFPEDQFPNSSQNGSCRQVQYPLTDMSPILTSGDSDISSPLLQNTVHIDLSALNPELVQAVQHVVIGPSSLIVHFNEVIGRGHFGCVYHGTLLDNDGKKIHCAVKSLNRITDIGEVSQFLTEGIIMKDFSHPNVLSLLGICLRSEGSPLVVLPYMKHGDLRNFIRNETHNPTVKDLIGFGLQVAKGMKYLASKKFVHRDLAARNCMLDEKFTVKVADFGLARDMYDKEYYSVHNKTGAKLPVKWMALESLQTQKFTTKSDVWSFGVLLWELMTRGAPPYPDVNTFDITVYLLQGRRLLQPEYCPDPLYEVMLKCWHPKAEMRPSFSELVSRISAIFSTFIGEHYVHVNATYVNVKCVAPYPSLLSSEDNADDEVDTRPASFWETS
Chain of CaMKIδ(h) (Q8IU85 whole entry): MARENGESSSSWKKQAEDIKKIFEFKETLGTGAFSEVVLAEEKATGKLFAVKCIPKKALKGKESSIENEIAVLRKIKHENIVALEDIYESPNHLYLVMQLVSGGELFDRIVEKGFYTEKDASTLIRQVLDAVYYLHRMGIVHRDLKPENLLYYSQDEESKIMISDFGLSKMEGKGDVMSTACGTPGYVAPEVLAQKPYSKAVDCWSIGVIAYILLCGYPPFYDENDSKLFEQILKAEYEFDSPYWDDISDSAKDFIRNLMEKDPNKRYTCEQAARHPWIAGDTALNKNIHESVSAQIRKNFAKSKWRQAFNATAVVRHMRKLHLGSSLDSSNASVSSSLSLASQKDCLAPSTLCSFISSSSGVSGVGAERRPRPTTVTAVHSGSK

CC(C)CCC(=O)[C@]1(O)C(O)=C(C(=O)C(C)C)C(=O)[C@H]1CCC(C)C [TH2, tetrahydroiso-cohumulone]
kinase inhibition ([1]; 1 μg/ml): 104% of control | kinase inhibition ([1]; 5 μg/ml): 101% of control | kinase inhibition ([1]; 25 μg/ml): 82% of control | kinase inhibition ([1]; 50 μg/ml): 66% of control | kinase inhibition ([1]; 100 μg/ml): 50% of control | kinase inhibition ([2]; 1 μg/ml): 99% of control | kinase inhibition ([2]; 5 μg/ml): 90% of control | kinase inhibition ([2]; 25 μg/ml): 84% of control | kinase inhibition ([2]; 50 μg/ml): 83% of control | kinase inhibition ([2]; 100 μg/ml): 72% of control | kinase inhibition ([3]; 1 μg/ml): 95% of control | kinase inhibition ([3]; 5 μg/ml): 88% of control | kinase inhibition ([3]; 25 μg/ml): 101% of control | kinase inhibition ([3]; 50 μg/ml): 105% of control | kinase inhibition ([3]; 100 μg/ml): 98% of control | kinase inhibition ([4]; 1 μg/ml): 120% of control | kinase inhibition ([4]; 5 μg/ml): 109% of control | kinase inhibition ([4]; 25 μg/ml): 117% of control | kinase inhibition ([4]; 50 μg/ml): 105% of control | kinase inhibition ([4]; 100 μg/ml): 92% of control | kinase inhibition ([5]; 1 μg/ml): 99% of control | kinase inhibition ([5]; 5 μg/ml): 102% of control | kinase inhibition ([5]; 25 μg/ml): 78% of control | kinase inhibition ([5]; 50 μg/ml): 63% of control | kinase inhibition ([5]; 100 μg/ml): 49% of control | kinase inhibition ([6]; 1 μg/ml): 95% of control | kinase inhibition ([6]; 5 μg/ml): 96% of control | kinase inhibition ([6]; 25 μg/ml): 112% of control | kinase inhibition ([6]; 50 μg/ml): 106% of control | kinase inhibition ([6]; 100 μg/ml): 86% of control | kinase inhibition ([7]; 1 μg/ml): 145% of control | kinase inhibition ([7]; 5 μg/ml): 146% of control | kinase inhibition ([7]; 25 μg/ml): 139% of control | kinase inhibition ([7]; 50 μg/ml): 91% of control | kinase inhibition ([7]; 100 μg/ml): 68% of control | kinase inhibition ([8]; 1 μg/ml): 114% of control | kinase inhibition ([8]; 5 μg/ml): 113% of control | kinase inhibition ([8]; 25 μg/ml): 97% of control | kinase inhibition ([8]; 50 μg/ml): 83% of control | kinase inhibition ([8]; 100 μg/ml): 61% of control | kinase inhibition ([9]; 1 μg/ml): 107% of control | kinase inhibition ([9]; 5 μg/ml): 89% of control | kinase inhibition ([9]; 25 μg/ml): 87% of control | kinase inhibition ([9]; 50 μg/ml): 46% of control | kinase inhibition ([9]; 100 μg/ml): 45% of control | kinase inhibition ([10]; 1 μg/ml): 131% of control | kinase inhibition ([10]; 5 μg/ml): 124% of control | kinase inhibition ([10]; 25 μg/ml): 93% of control | kinase inhibition ([10]; 50 μg/ml): 94% of control | kinase inhibition ([10]; 100 μg/ml): 86% of control
